Experimental data: PMC4766439, “Discovery of novel PDE9 inhibitors capable of inhibiting Aβ aggregation as potential candidates for the treatment of Alzheimer’s disease” (Scientific Reports, 2016)

Legend:
[1] = Metal-chelating capacity by UV-vis spectrophotometry; assay type: physicochemical; settings: 30% (v/v) ethanol/buffer, pH 7.4
Description: The experiments were performed according to previously reported methods. The metal chelation was monitored spectrophotometrically using a UV–vis spectrophotometer. […].

[2] = target: T1, Aβ1-42 fibrils (Homo sapiens, UniProt P05067); test: ThT assay, disaggregation of Cu^2+-induced Aβ1-42 fibrils; assay type: biochemical; settings: [Aβ1-42] = 25 μM, compound 50 μM, [Cu^2+] = 25 μM, additional 24 h
T1 construct: purchased Sigma
Description: For assaying the disaggregation of the copper (II)-induced Aβ1-42 fibrils, the Aβ1-42 stock solution was first diluted in HEPES buffer ([…], pH 6.6). The mixture of the peptide (10 μL, 25 μM final concentration) and copper (II) (10 μL, 25 μM final concentration) was then incubated at 37 °C for 24 h. Then, the test compound (10 μL, 50 μM final concentration) was added and incubated at 37 °C for an additional 24 h. Thereafter, 30 μL of the sample was diluted to a final volume of 200 μL with 50 mM glycine-NaOH buffer (pH 8.0) containing thioflavin-T (5 μM) in the dark. The detection method used was the same as that described above.

[3] = target: T2, PDE3A (679–1087) (Homo sapiens, UniProt Q14432); test: PDE activity assay, PDE3A catalytic domain; assay type: biochemical
T2 construct: PDE3A (679–1087)
Description: (§1) The enzymatic activities of the catalytic domains of PDE9 and other PDEs were measured by using cGMP or cAMP as substrates. The assay buffer contained 20–50 mM Tris–HCl (pH 7.5–8.0), 10 mM MgCl2 or 4 mM MnCl2, 1 mM DTT, and 10–20 nM ^3H-cGMP or ^3H-cAMP (20000–30000 cpm/assay, GE Healthcare). The reaction was performed at room temperature for 15 min and then terminated by the addition of 0.2 M ZnSO4. The addition of 0.25 M BaSO4 precipitated the generated ^3H-GMP, whereas the unreacted ^3H-cGMP remained in solution. The radioactivity in the supernatant was measured in 2.5 mL with an Ultim Gold liquid scintillation counter. […] The IC50 values were calculated by nonlinear regression method by using GraphPad Prism 5.0 Software.

[4] = Cu-ascorbate redox system (CCA fluorescence); settings: [Cu^2+] = 5 μM, [16] = 15 μM, ascorbate 150 μM, CCA 50 μM, PBS pH 7.4
Description: The experiments were performed as reported previously. […]. Then, ascorbate (150 μM) was added to the solution, and the fluorescence was recorded every 20 s (λexcitation = 395 nm, λemission = 450 nm). Each experiment was performed in triplicate. All test solutions contained 1 μM desferryl and 0.1% methanol.

[5] = test system: SH-SY5Y cells; test: MTT cytotoxicity assay; assay type: cell-based, human; settings: below the 10 μM concentration, 48 h
[6] = test system: SH-SY5Y cells; test: Intracellular antioxidant activity (DCFH-DA, t-BuOOH); assay type: cell-based, human; settings: t-BuOOH-induced; 5 μM of 16 vs 10 μM of Trolox
Description: Cell culture was performed as reported previously. The human neuron-like cell line SH-SY5Y was obtained from the Institute of Biochemistry and Cell Biology, Shanghai Institute for Biological Sciences (Shanghai, China). The cells were cultured at 37 °C in a humidified atmosphere of 5% CO2 in Dulbecco’s modified Eagle’s medium (DMEM, GIBCO) supplemented with 10% fetal calf serum (FCS, GIBCO), 1 mM glutamine, 100 IU/mL penicillin, and 100 μg/mL streptomycin.
The antioxidant activity was determined as reported previously. The SH-SY5Y cells were seeded at a density of 1 × 10^4 cells/well in a 96-well plate. After 24 h, the culture medium was replaced with medium containing tested compounds, and the cells were cultured for an additional 24 h. Then, the cells were washed with PBS and incubated with 5 μM DCFH-DA (diluted by PBS) at 37 °C for 30 min. […] Then, the fluorescence of the cells in each well was measured (λexcitation = 485 nm, λemission = 535 nm) with a multifunctional microplate reader (Flex Station 3). The antioxidant activity was expressed as a percentage relative to that of the control cells and calculated using the formula (Ft – Fnt)/(Ft’ – Fnt) ×100, where Ft is the fluorescence value of the cells treated with the tested compound, Ft’ is the fluorescence value of the cells not treated with the tested compound, and Fnt is the fluorescence value of the cells treated with t-BuOOH.

[7] = target: PDE5A1 (535–860) (Homo sapiens, UniProt O76074); test: PDE activity assay, PDE5A1 catalytic domain; assay type: biochemical
Description: as §1

[8] = target: T3, PDE2A3 (580–941) (Homo sapiens, UniProt O00408); test: PDE activity assay, PDE2A3 catalytic domain; assay type: biochemical
T3 construct: PDE2A3 (580–941)
Description: as §1

[9] = target: T4, PDE8A1 (480–820) (Homo sapiens, UniProt O60658); test: PDE activity assay, PDE8A1 catalytic domain; assay type: biochemical
T4 construct: PDE8A1 (480–820)
Description: as §1

[10] = target: T5, PDE1B2 (10–487) (Homo sapiens, UniProt Q01064); test: PDE activity assay, PDE1B2 catalytic domain; assay type: biochemical
T5 construct: PDE1B2 (10–487)
Description: as §1

[11] = target: T6, Aβ1-42 (Homo sapiens, UniProt P05067); test: Transmission electron microscopy (TEM) assay of Aβ1-42; assay type: biochemical; settings: [Aβ1-42] = 25 μM, compound 50 μM, [Cu^2+] = 25 μM, 37 °C, 24 h
T6 construct: purchased Sigma
Description: The assays were performed as reported previously. For the TEM assay of copper (II)-induced Aβ1-42 aggregation and the disaggregation of the fibrils, the samples were pretreated as described for the ThT assay. Samples (10 μL) were placed on a carbon-coated copper/rhodium grid for 2 min. Then, each grid was stained with uranyl acetate (1%, 5 μL) for 2 min. After the excess staining solution was drained off, the specimen was transferred for imaging by a transmission electron microscope (JEOL JEM-1400).

[12] = Lipid-water distribution coefficient, shake-flask 1-octanol/water; assay type: physicochemical; settings: 1-octanol/water (1:1), means of at least three independent tests
[13] = PAMPA-BBB in vitro blood-brain barrier permeation assay; assay type: in vitro ADME
Description: The blood–brain barrier penetration capacity of the compounds was evaluated by using the parallel artificial membrane permeation assay (PAMPA). […] The porcine brain lipid (PBL) was obtained from Avanti Polar Lipids. The donor microplate (PVDF membrane, pore size of 0.45 nm) and the acceptor microplate were from Millipore. The acceptor 96-well microplate (COSTAR) was filled with 300 μL of a PBS/EtOH mixture (7:3) and the filter membrane was impregnated with 4 μL of PBL in dodecane (20 mg/mL). The compounds were dissolved in DMSO at a concentration of 5 mg/mL and diluted with the PBS/EtOH mixture (7:3) to a concentration of 100 μg /mL. Then, 200 μL of this solution was added to the donor wells and the wells were carefully placed on the acceptor plate, which was then incubated for 10 h at 25 °C in a vibrationless environment. After the incubation, the donor plate was removed and the concentration of compounds in the acceptor wells was determined with a UV plate reader (Flexstation 3). Each sample was analyzed at five wavelengths in four wells, and at least three independent runs were performed. The results are expressed as the mean ± standard deviation. In these experiments, 13 quality control standards of known BBB permeability were included to validate the analysis set.
where Vd is the volume in the donor well, Va is the volume in acceptor well, A is the filter area, t is the permeation time, [drug]acceptor is the absorbance of the compound in the acceptor well, and [drug]equilibrium is the theoretical equilibrium absorbance.

[14] = target: T7, PDE10A2 (448–789) (Homo sapiens, UniProt Q9Y233); test: PDE activity assay, PDE10A2 catalytic domain; assay type: biochemical
T7 construct: PDE10A2 (448–789)
Description: as §1

[15] = Oxygen Radical Absorbance Capacity (ORAC-FL) assay; settings: Trolox as standard
Description: The assays were performed in 75 mM PBS (pH 7.4) and all the tested compounds were dissolved in DMSO and diluted with the PBS. Trolox was used as a standard (1–10 μM final concentration). The tested compounds at different concentrations (20 μL, final concentration: 2 μM) and fluorescein (FL, 120 μL, final concentration: 300 nM) were placed in the wells of a black 96-well plate. The mixture was incubated for 10 min at 37 °C and then, APPH solution (60 μL, final concentration: 12 mM diluted by 75 mM PBS) was added rapidly. […] A blank (FL + AAPH), with PBS replacing the compounds and Trolox was used for calibration in each assay. The compounds were tested at different concentrations (0.5–10 μM). The experiments were performed in three independent runs for each sample. The fluorescence measurements were normalized to that of the blank (without antioxidant). The area under the fluorescence decay curve (AUC) was calculated using the following equation (eq. 2):
where f0 is the fluorescence reading at 0 min and fi is the fluorescence reading at time i. The net AUC was calculated by the expression AUCsample − AUCblank. Regression equations between net AUC and Trolox concentrations were calculated. The final results were expressed in μM of Trolox equivalent/μM of pure compounds.

[16] = target: T8, PDE7A1 (130–482) (Homo sapiens, UniProt Q13946); test: PDE activity assay, PDE7A1 catalytic domain; assay type: biochemical
T8 construct: PDE7A1 (130–482)
Description: as §1

[17] = target: T9, PDE4D2 (86–413) (Homo sapiens, UniProt Q08499); test: PDE activity assay, PDE4D2 catalytic domain; assay type: biochemical
T9 construct: PDE4D2 (86–413)
T9 sequence (Q08499 388-715): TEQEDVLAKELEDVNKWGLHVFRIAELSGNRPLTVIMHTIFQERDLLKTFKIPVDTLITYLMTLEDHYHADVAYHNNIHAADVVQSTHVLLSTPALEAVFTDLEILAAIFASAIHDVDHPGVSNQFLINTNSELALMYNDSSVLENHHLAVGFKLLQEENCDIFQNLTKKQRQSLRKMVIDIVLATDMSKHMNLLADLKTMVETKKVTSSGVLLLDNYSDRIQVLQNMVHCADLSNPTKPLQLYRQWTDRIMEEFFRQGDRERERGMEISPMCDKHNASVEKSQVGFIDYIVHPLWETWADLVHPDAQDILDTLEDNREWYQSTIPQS
Description: as §1

T6 sequence (P05067 672-713 limits assumed): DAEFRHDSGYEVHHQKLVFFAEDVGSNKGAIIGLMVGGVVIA
T7 sequence (Q9Y233 714-1055): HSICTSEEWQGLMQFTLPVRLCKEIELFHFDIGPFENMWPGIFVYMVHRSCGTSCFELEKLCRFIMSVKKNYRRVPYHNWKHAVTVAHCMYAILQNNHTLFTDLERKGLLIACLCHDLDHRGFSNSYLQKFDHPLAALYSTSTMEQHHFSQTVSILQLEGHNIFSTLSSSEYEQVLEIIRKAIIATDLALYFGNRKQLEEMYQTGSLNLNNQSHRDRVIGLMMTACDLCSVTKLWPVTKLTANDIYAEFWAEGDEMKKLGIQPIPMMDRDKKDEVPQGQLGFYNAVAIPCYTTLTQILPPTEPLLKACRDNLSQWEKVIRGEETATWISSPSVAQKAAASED
T3 sequence (O00408 580-941): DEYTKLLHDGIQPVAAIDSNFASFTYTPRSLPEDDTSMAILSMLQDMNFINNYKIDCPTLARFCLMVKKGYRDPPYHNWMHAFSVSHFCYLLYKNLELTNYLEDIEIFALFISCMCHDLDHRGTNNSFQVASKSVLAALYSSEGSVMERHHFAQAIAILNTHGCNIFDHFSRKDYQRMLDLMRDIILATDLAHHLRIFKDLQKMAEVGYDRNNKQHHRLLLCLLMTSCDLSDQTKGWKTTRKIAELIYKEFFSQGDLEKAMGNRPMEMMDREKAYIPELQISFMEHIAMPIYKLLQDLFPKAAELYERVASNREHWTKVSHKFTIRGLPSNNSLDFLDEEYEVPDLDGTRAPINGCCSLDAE
T4 sequence (O60658 480-820): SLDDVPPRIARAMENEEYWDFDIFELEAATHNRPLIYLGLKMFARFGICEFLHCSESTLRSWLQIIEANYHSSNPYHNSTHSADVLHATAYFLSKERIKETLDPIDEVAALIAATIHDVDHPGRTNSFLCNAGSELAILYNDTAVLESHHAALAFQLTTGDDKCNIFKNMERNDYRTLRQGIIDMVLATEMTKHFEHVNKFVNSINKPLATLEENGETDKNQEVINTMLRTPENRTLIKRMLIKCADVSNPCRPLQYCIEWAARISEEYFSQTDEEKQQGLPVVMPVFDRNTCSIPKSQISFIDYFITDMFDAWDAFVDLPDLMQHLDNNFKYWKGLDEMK
T5 sequence (Q01064 10-487 isoform Q01064-2): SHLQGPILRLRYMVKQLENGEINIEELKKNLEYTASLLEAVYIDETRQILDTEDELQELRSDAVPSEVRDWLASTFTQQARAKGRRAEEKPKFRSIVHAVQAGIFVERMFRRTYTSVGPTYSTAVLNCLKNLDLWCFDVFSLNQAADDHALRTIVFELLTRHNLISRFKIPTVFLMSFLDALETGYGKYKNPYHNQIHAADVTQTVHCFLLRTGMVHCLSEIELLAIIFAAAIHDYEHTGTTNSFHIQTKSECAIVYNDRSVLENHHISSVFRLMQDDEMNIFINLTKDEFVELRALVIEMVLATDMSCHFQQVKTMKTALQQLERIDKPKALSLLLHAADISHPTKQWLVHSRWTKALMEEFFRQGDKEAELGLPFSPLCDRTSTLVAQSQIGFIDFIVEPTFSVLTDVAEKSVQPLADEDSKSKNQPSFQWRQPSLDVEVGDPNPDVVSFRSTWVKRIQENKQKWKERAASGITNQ
T1 sequence (P05067 672-713 limits assumed): as the sequence (P05067 672-713 limits assumed) above
T8 sequence (Q13946 130-482): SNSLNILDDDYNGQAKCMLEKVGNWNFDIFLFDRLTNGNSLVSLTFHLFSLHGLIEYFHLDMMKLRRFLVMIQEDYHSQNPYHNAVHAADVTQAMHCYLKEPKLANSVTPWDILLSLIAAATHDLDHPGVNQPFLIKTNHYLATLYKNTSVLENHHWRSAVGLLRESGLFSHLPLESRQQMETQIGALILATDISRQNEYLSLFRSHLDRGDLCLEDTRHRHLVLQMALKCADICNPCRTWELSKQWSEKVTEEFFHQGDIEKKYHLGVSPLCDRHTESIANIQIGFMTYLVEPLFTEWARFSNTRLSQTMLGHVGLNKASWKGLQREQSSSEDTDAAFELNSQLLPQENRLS
T2 sequence (Q14432 679-1087): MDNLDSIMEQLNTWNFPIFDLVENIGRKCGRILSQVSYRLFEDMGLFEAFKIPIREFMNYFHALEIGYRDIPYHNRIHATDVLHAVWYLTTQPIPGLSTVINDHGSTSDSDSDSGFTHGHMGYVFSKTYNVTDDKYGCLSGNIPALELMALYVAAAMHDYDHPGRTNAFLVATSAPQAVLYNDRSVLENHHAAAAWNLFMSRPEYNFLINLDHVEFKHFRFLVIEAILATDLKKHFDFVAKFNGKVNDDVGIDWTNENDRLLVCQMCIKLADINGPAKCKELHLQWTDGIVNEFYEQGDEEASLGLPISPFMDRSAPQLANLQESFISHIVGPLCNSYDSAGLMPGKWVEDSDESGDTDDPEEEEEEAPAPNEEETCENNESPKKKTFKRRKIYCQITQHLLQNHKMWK

## COc1ccc(CN[C@H](C)c2nc3c(cnn3C3CCCC3)c(=O)[nH]2)c(O)c1 [Compound 16]
[1]
  chelation of Cu^2+, Fe^2+, Zn^2+ (UV-vis absorbance changes): formation of 16-Metal ion (II) complex
  chelation of Fe^3+ (UV-vis): failed to chelate Fe^3+ effectively
[2]
  disaggregation of Cu^2+-induced Aβ1-42 fibrils (ThT): 64.6%
[3]
  IC50: > 10000 nM
[4]
  copper redox cycling, OH· production (7-hydroxyl-CCA fluorescence): fully inhibited
[5]
  cytotoxicity toward SH-SY5Y cells (MTT): nearly no toxicity
[6]
  intracellular antioxidant activity (ROS, DCFH-DA): superior antioxidant activity to that of Trolox
[7]
  IC50: 1900 nM
[8]
  IC50: > 50000 nM
[9]
  IC50: > 50000 nM
[10]
  IC50: 17000 nM
[11]
  Aβ fibrils by TEM, disaggregation of preformed fibrils: drastically reduced the amount of Aβ fibrils
  Aβ fibrils by TEM, inhibition of Cu^2+-induced aggregation: fewer fibrils were observed than in the presence of CQ
[12]
  logP at 30 min: 1.1
[13]; PAMPA, PBS:EtOH (70:30), mean ± SD of three independent experiments, read-out: Permeability
  Papp at 10 h, 100 μg/mL: 17 ×10⁻⁶ cm/s
[13]; from PAMPA-BBB Pe
  prediction of penetration into the CNS: CNS+ (Compounds of high BBB permeation (CNS+) Pe > 4.7)
[14]
  IC50: 6900 nM
[15]
  ORAC: 4.47 ± 0.10 μmol of Trolox equiv/μmol tested compound
  oxygen radical absorbance capacity, ORAC-FL value: 4.47 ORAC-FL units
[16]
  IC50: > 50000 nM
[17]
  IC50: 25000 nM
